# Source: publication PMC6934184, “Selective DNA-PKcs inhibition extends the therapeutic index of localized radiotherapy and chemotherapy” (The Journal of Clinical Investigation, 2019)
# Molecular target: T1, DAPK1 (Homo sapiens, UniProt P53355)
# T1 construct: purchased Thermo Fisher Scientific (Life Technologies) SelectScreen
# Experiment: SelectScreen Adapta
# Type: biochemical
# Protocol: The in vitro kinase selectivity of NU5455 was determined using the SelectScreen Broad Assay Panel (Thermo Fisher Scientific) involving activity and binding assays (Supplemental Table 1). […] Class IA PI3Ks were measured using the p85α subunit.
# Kinase [ATP] % Assay Kinase [ATP] % Assay Kinase [ATP] % Assay Kinase [ATP] % Assay
# DNA-PK Km app 98.3 Z LATS2 n/a 4.7 L KIT D820E n/a 1.3 L GSK3B (GSK3 beta) Km app -2.5 Z
# PIK3C3 (hVPS34) Km app 85.9 A PRKCZ (PKC zeta) Km app 4.7 Z GRK1 n/a 1.3 L BMPR2 n/a -2.5 L
# PIK3C2B (PI3K-C2 beta) 10 28.9 A FGFR1 Km app 4.7 Z BRSK2 n/a 1.2 L CDC42 BPB (MRCKB) Km app -2.5 Z
# SNF1LK2 Km app 26.6 Z MINK1 Km app 4.6 Z NUAK1 (ARK5) Km app 1.2 A AMPK (A2/B2/G2) n/a -2.6 L
# HCK Km app 18.0 Z CSF1R (FMS) Km app 4.3 Z CDK9/cyclin K n/a 1.0 L PRKG1 Km app -2.7 Z
# NEK2 Km app 17.8 Z CSNK1G3 (CK1 gamma 3) Km app 4.2 Z NUAK2 n/a 1.0 L KIT T670E n/a -2.8 L
# ALK Km app 17.3 Z STK32C (YANK3) n/a 4.2 L CDK2/cyclin O n/a 0.9 L ERBB4 (HER4) Km app -2.8 Z
# FGFR3 K650M n/a 16.5 L STK22D (TSSK1) Km app 4.2 Z CAMKK2 (CaMKK beta) n/a 0.9 L PLK4 n/a -2.8 L
# SIK3 n/a 16.1 L TAOK3 (JIK) n/a 4.2 L FGFR3 Km app 0.9 Z GRK7 Km app -3.0 Z
# LYN A Km app 15.2 Z RPS6KA4 (MSK2) Km app 4.2 Z ULK2 n/a 0.9 L MAPKAPK2 Km app -3.1 Z
# BMPR1B (ALK6) n/a 14.5 L PTK2B (FAK2) Km app 4.2 Z KIT D816V n/a 0.9 L FGFR4 Km app -3.1 Z
# INSRR (IRR) Km app 14.1 Z CLK2 Km app 4.1 Z CAMK1 (CaMK1) 10 0.8 A CASK n/a -3.1 L
# PLK2 Km app 14.1 Z STK24 (MST3) Km app 4.1 Z PTK6 (Brk) Km app 0.7 Z GRK5 Km app -3.2 Z
# PRKACA (PKA) Km app 14.0 Z CAMK1D (CaMKI delta) Km app 4.1 Z CAMK2B (CaMKII beta) Km app 0.7 Z EGFR (ErbB1) T790M Km app -3.3 Z
# EIF2AK2 (PKR) n/a 13.3 L INSR Km app 4.1 Z ACVR1 (ALK2) n/a 0.7 L PAK4 Km app -3.3 Z
# PRKX Km app 12.5 Z IRAK1 Km app 4.0 A ABL1 H396P n/a 0.6 L DAPK3 (ZIPK) Km app -3.4 Z
# FGR Km app 12.1 Z SRC N1 Km app 3.9 Z MERTK (cMER) A708S n/a 0.6 L RET M918T n/a -3.5 L
# CLK1 Km app 11.7 Z SRPK2 Km app 3.9 Z MAPKAPK5 (PRAK) Km app 0.6 Z PRKCQ (PKC theta) Km app -3.7 Z
# MARK3 Km app 11.4 Z RPS6KA6 (RSK4) Km app 3.8 Z AKT1 (PKB alpha) Km app 0.5 Z CAMKK1 (CAMKKA) n/a -3.8 L
# PDGFRB (PDGFR beta) Km app 11.0 Z GRK6 Km app 3.7 Z NTRK3 (TRKC) Km app 0.4 Z FLT3 D835Y Km app -3.9 Z
# PRKCN (PKD3) Km app 10.7 Z PKN1 (PRK1) Km app 3.6 Z ZAP70 Km app 0.3 Z ROCK2 Km app -4.1 Z
# STK16 (PKL12) n/a 10.5 L MAP3K8 (COT) 100 3.5 Z CSNK1A1 (CK1 alpha 1) Km app 0.3 Z CHUK (IKK alpha) Km app -4.2 A
# FES (FPS) Km app 10.4 Z FLT4 (VEGFR3) Km app 3.5 Z MYLK (MLCK) n/a 0.2 L AXL Km app -4.2 Z
# ABL1 Km app 10.4 Z GRK4 Km app 3.5 Z MKNK2 (MNK2) n/a 0.2 L PIM2 Km app -4.3 Z
# MUSK Km app 10.3 Z FRK (PTK5) Km app 3.4 Z AMPK (A1/B1/G3) n/a 0.2 L PAK1 Km app -4.4 Z
# MAPK1 (ERK2) Km app 10.1 Z FYN A n/a 3.3 L MAP3K2 (MEKK2) n/a 0.1 L BMPR1A (ALK3) n/a -4.4 L
# BRAF 100 9.9 Z CDK1/cyclin A2 n/a 3.3 L CDK8/cyclin C n/a 0.1 L STK4 (MST1) Km app -4.4 Z
# IGF1R Km app 9.7 Z KIT V559D T670I n/a 3.1 L MARK2 Km app 0.1 Z PRKCH (PKC eta) Km app -4.6 Z
# MAPK14 (p38 alpha) Km app 9.7 Z SPHK2 10 3.1 A ICK n/a 0.0 L SGKL (SGK3) Km app -4.6 Z
# LCK Km app 9.6 Z FGFR3 G697C n/a 3.1 L FGFR2 Km app 0.0 Z PI4KB (PI4K beta) Km app -4.7 A
# MAPK11 (p38 beta) Km app 9.5 Z RIPK2 n/a 3.1 L AKT2 (PKB beta) Km app 0.0 Z PRKCE (PKC epsilon) Km app -4.9 Z
# SRC Km app 9.5 Z PAK6 Km app 3.0 Z EPHB2 Km app -0.1 Z PHKG1 Km app -5.0 Z
# CHEK1 (CHK1) Km app 9.3 Z LYN B Km app 3.0 Z TGFBR2 n/a -0.1 L PDGFRA D842V Km app -5.0 Z
# CAMK2D (CaMKII delta) Km app 9.3 Z DAPK2 n/a 2.9 L TEK (Tie2) Km app -0.1 Z PRKG2 (PKG2) Km app -5.1 Z
# PLK1 Km app 9.2 Z EPHA4 Km app 2.9 Z AURKA (Aurora A) Km app -0.1 Z TYRO3 (RSE) Km app -5.1 Z
# RET Y791F Km app 9.2 Z PIK3CG (p110 gamma) Km app 2.9 A KIT D816H n/a -0.2 L TAOK2 (TAO1) Km app -5.1 Z
# FLT3 Km app 9.1 Z HIPK1 (Myak) Km app 2.8 Z KIT N822K n/a -0.2 L EPHB4 Km app -5.3 Z
# MAPK10 (JNK3) 100 9.0 Z ADRBK2 (GRK3) Km app 2.8 Z PRKACG (PRKAC gamma) n/a -0.2 L AURKC (Aurora C) Km app -5.4 Z
# CSNK2A2 (CK2 alpha 2) Km app 8.7 Z STK17B (DRAK2) n/a 2.7 L TEK (TIE2) Y1108F n/a -0.3 L JAK1 Km app -5.7 Z […]
# T1 sequence (P53355 whole entry): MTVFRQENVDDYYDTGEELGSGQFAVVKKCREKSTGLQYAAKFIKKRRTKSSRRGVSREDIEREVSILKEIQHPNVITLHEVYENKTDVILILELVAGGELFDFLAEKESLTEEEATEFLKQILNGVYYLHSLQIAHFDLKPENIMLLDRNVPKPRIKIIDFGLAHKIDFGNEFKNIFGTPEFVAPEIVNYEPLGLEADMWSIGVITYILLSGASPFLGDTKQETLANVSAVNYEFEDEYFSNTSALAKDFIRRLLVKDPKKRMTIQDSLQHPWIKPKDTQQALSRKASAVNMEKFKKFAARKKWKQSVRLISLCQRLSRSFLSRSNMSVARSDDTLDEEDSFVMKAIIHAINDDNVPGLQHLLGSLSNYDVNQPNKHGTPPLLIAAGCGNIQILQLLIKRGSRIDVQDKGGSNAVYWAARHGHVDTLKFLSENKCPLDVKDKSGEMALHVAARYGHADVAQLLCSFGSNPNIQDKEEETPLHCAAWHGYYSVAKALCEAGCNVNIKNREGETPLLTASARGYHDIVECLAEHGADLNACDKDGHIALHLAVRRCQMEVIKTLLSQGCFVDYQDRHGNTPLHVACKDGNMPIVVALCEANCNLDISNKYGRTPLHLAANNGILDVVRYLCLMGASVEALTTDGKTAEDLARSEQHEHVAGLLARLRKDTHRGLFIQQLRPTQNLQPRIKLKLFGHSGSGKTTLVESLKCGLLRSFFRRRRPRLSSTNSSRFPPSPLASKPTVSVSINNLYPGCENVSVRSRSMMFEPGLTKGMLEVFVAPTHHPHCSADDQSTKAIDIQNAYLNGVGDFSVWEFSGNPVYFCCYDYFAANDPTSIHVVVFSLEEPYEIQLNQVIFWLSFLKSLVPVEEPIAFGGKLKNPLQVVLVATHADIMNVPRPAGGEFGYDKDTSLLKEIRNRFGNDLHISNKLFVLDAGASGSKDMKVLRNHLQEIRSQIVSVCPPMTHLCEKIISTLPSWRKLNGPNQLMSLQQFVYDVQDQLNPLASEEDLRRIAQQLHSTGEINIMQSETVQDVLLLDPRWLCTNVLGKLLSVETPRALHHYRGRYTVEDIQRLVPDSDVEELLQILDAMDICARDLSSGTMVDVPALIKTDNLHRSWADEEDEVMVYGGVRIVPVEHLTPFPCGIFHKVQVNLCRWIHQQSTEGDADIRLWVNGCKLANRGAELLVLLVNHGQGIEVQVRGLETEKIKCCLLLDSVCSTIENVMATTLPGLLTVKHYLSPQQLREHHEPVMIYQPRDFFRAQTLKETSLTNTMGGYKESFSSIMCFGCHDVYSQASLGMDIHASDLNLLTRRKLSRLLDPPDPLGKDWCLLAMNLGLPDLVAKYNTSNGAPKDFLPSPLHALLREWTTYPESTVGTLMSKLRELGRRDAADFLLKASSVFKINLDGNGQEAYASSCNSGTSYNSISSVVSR
smiles,measurement,value
CN(C(=O)CN1CCOCC1)c1ccc2sc3c(-c4cccc5c(=O)cc(N6CC7CCC(C6)O7)oc45)cccc3c2c1 [NU5455],inhibition at 1 µM,1.6%
